Measured values as given in BindingDB's records for doi:10.1021/jm00126a020 (Sankyo, 1989).

Assays:
Thromboxane-A synthase = biological target: T1, Thromboxane-A synthase (Homo sapiens, UniProt P24557); experiment: ChEBML_209951
T1 sequence (P24557 whole entry): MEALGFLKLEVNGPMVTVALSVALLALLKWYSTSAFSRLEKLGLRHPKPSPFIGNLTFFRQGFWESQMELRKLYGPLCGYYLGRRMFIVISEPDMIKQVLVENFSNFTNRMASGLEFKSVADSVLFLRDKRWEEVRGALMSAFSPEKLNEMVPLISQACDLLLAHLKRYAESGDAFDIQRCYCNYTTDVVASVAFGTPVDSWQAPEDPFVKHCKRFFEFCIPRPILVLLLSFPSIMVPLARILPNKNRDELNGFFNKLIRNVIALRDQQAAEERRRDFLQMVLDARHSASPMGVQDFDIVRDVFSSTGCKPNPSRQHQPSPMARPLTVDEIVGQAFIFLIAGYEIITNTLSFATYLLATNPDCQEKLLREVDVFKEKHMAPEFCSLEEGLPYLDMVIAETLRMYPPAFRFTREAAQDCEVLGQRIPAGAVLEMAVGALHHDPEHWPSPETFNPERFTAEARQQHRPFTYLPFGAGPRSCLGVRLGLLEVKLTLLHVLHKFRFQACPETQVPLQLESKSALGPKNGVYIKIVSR
Excerpt: Inhibition of thromboxane A2 synthetase

[1] = biological target: Thromboxane-A synthase (Oryctolagus cuniculus); experiment: Inhibition of platelet microsomal thromboxane A2 synthetase in rabbits

| Compound | IC50 (Thromboxane-A synthase) | IC50 [1] |
| --- | --- | --- |
| O=C(O)C1=Cc2cc(C(c3ccccc3)n3ccnc3)sc2CC1 (stereo not drawn) | 114 nM | – |
| O=C(O)C1CCc2cc(CCn3ccnc3)sc2C1 (stereo not drawn) | 1850 nM | – |
| O=C(O)C1=Cc2cc(CCn3ccnc3)sc2CC1 | 100 nM | – |
| O=C(O)C1CCc2sc(CCn3ccnc3)cc2C1 (stereo not drawn) | 1020 nM | – |
| O=C(O)C1=Cc2sc(CCn3ccnc3)cc2CC1 | > 10000 nM | – |
| O=C(O)C1CCc2sc(Cn3ccnc3)cc2C1 (stereo not drawn) | 86 nM | – |
| O=C(O)c1cc2c(s1)CCC(Cn1ccnc1)C2 (stereo not drawn) | 114 nM | – |
| O=C(O)c1cc2c(s1)CC(Cn1ccnc1)CC2 (stereo not drawn) | 2680 nM | – |
| O=C(O)C1=Cc2cc(Cn3ccnc3)sc2CC1 | 93 nM | – |
| CC(C)(C)C(c1cc2c(s1)CCC(C(=O)O)=C2)n1ccnc1 (stereo not drawn) | > 10000 nM | – |
| O=C(O)C1=Cc2cc(C(C3CCCCC3)n3ccnc3)sc2CC1 (stereo not drawn) | > 10000 nM | – |
| O=C(O)C1=Cc2sc(Cn3ccnc3)cc2CC1 [2-Imidazol-1-ylmethyl-4,5-dihydro-benzo[b]thiophene-6-carboxylic acid] | 13 nM | 13 nM |
